Data set [1] deals with HSV-1. The data set can be described thus: HSV-1 antiviral plaque reduction assay in WI-38 cell culture monolayers. Format: cell-based, herpes simplex virus type 1, strain Schooler. The settings on record: Human alphaherpesvirus 1, 96 h, WI-38 cells, 4 days at 37° C., read-out: ID50 for HSV-1. How it is done:
(§1) Assays were performed in cell culture systems to determine the concentrations of compounds that are effective in preventing several kinds of viral infections.
(§2) HSV-1 (herpes simplex virus type 1, strain Schooler), HSV-2 (herpes simplex virus type 2, strain 186), VZV (varicella zoster virus, strain ELLEN), HCMV (human cytomegalovirus, strain AD 169 HIV (human immununodeficiency virus, strain HTLV-IIIB).
(§3) HSV-1, HSV-2, HCMV and VZV antiviral assays: Virus was adsorbed to WI-38 cell culture monolayers in 6 well culture plates (Costar, Cambridge, Mass.) for 1 hour prior to addition of maintenance medium containing duplicate dilutions of the test compound. Inhibition of plaque development was evaluated on fixed and stained monolayers after 4 days incubation at 37° C. for HSV-1 and HSV-2, and after 5-7 days incubation at 37° C. for HCMV and VZV. ID50 values were determined from the drug concentration which conferred at least a 50% plaque reduction compared to virus controls.
For orientation: Plaque reduction counts the foci of infection that form in a cell layer.

Data set [2] deals with HSV-2. The data set can be described thus: HSV-2 antiviral plaque reduction assay in WI-38 cell culture monolayers. Format: cell-based, herpes simplex virus type 2, strain 186. To be noted: Human alphaherpesvirus 2, 96 h, WI-38 cells, 4 days at 37° C., read-out: ID50 for HSV-2. How it is done:
as §1, §2, §3

Data set [3] concerns VZV. Put plainly: VZV antiviral plaque reduction assay in WI-38 cell culture monolayers. The class given is cell-based, varicella zoster virus, strain ELLEN. To be noted: Human alphaherpesvirus 3, WI-38 cells, 5-7 days at 37° C., read-out: ID50 for VZV. The method, then:
as §1, §2, §3

The test system of data set [4] is HCMV. Put plainly: HCMV antiviral plaque reduction assay in WI-38 cell culture monolayers. Format: cell-based, human cytomegalovirus, strain AD 169. The settings on record: Human betaherpesvirus 5, WI-38 cells, 5-7 days at 37° C., read-out: ID50 for HCMV. The method, then: as §1, §2, §3
Data set [5] concerns HIV. The data set can be described thus: HIV antiviral assay (reduction of viral cytopathic effect in MT-2 cells, XTT-PMS). The settings on record: Human immunodeficiency virus 1, MT2, 168 h, 7 days, read-out: reduction in viral CPE (HIV). The class given is cell-based, human immununodeficiency virus, strain HTLV-IIIB. How it is done:
as §1, §2
HIV antiviral assay: Suspensions of MT-2 cells (S. Harada, et al., Science, 229, 563 (1985)) were infected at a multiplicity of infection of 0.03 TLID50 /cell with HIV (strain HTLV-III B). […] Following incubation, viable cell numbers were counted in each well using a colorimetric assay following incubation of cells with XTT-PMS solution (XTT tetrazolium reagent plus phenazine methosulfate PMS).
(§4) Percent reduction of viral cytopathic effect (CPE) in drug treated compared to untreated virus infected cells, and percent reduction of cell viability in drug treated uninfected cells compared to untreated controls were calculated and plotted versus the drug concentrations tested. […]
(Protection from cytopathic effect is a common read-out in antiviral testing.)

Data set [6] in a line: Reduction of cell viability in uninfected MT-2 cells (XTT-PMS). To be noted: human, 7 days. The class given is cell-based. How it is done: HIV antiviral assay: Suspensions of MT-2 cells (S. Harada, et al., Science, 229, 563 (1985)) were infected at a multiplicity of infection of 0.03 TLID50 /cell with HIV (strain HTLV-III B). After adsorption for 1-2 hours at 37° C., infected cells were diluted in growth medium (RPMI 1640 containing the antibiotics penicillin plus streptomycin and 10% fetal calf serum) to give a final cell concentration of 1×10^4 viable cells/culture well in the presence of serial dilutions of the test compound, starting at 100 μg/ml. Triplicate samples at each drug concentration were used. Cultures of uninfected MT-2 cells were similarly prepared and incubated with serial dilutions of test compound in duplicate. All assays were performed in 96 well disposable cell culture plates. Untreated (infected and uninfected) cells were included as controls. […] Following incubation, viable cell numbers were counted in each well using a colorimetric assay following incubation of cells with XTT-PMS solution (XTT tetrazolium reagent plus phenazine methosulfate PMS).
as §4

Molecules are shown by their SMILES.

Turning to `C=C1[C@H](CO)[C@@H](O)C[C@@H]1n1cc(C)c(=O)[nH]c1=O` [[1S-(1α,3α,4β)]-1-[4-Hydroxy-3-(hydroxymethyl)-2-methylenecyclopentyl]-5-methyl-2,4(1H,3H)-pyrimidinedione], the IC50 was 8 to 20 µM in data set [1], 40 to 100 µM in data set [2], 40 to 400 µM in data set [3] and not below 396 µM in data set [4].
Regarding `C=C1[C@H](CO)[C@@H](O)C[C@@H]1n1cc(/C=C/Cl)c(=O)[nH]c1=O` [[1S-[1α(E),3α,4β]]-5-(2-Chloroethenyl)-1-[4-hydroxy-3-(hydroxymethyl)-2-methylenecyclopentyl]-2,4(1H,3H)-pyrimidinedione], the IC50 is 0.07 to 0.16 µM in data set [1], 2 µM in data set [2] and 1.7 µM in data set [3].
For the compound `C=C1[C@H](CO)[C@@H](O)C[C@@H]1n1cc(/C=C/Br)c(=O)[nH]c1=O` [[1S-[1α(E),3α,4β)]-5-(2-Bromoethenyl)-1-[4-hydroxy-3-(hydroxymethyl)-2-methylenecyclopentyl]-2,4(1H,3H)-pyrimidinedione], the IC50 was 0.6 to 1.5 µM in data set [1], 29 to 73 µM in data set [2], 0.3 to 0.6 µM in data set [3] and 291 µM in data set [4].
On to `C=C1[C@H](CO)[C@@H](O)C[C@@H]1n1cnc2c(N)ncnc21` [[1R-(1α,3α,5β)]-3-(6-Amino-9H-purin-9-yl)-5-hydroxy-2-methylenecyclopentanemethanol], for which the IC50 was 191 to 383 µM in data set [1], 191 to 383 µM in data set [2], more than 96 µM in data set [3] and more than 38 µM in data set [4]. Also, in data set [5] (at 27 μM), the inhibition at 27 µM was found to be 50%. Moreover, the cytotoxicity at 168 h, 27 µM in data set [6] (at 27 μM) turned out to be 23%.
For the compound `C=C1[C@H](CO)[C@@H](O)C[C@@H]1n1cc(I)c(=O)[nH]c1=O` [[1S-(1α,3α,4β)]-1-[4-Hydroxy-3-(hydroxymethyl)-2-methylenecyclopentyl]-5-iodo-2,4(1H,3H)pyrimidinedione], the IC50 in data set [1] was 6 to 14 µM; in data set [2] it was more than 275 µM; in data set [3], 68 to 137 µM; in data set [4], 68 to 137 µM.
As for `C=C1[C@H](CO)[C@@H](O)C[C@@H]1n1cnc2c(=O)[nH]c(N)nc21` [[1S-(1α,3α,4β)]-2-Amino-1,9-dihydro-9-[4-hydroxy-3-(hydroxymethyl)-2-methylenecyclopentyl]-6H-purin-6-one], the IC50 in data set [1] is 3.6 µM; in data set [2] it was 7.2 to 18 µM; in data set [3] it was 18 to 36 µM; in data set [4], 90 µM. For the same compound, the inhibition at 12 µM in data set [5] (at 12 μM) is 41%. Besides, the cytotoxicity at 168 h, 12 µM in data set [6] (at 12 μM) is 4%.
In the case of `C=C1[C@H](CO)[C@@H](O)C[C@@H]1n1cc(/C=C/I)c(=O)[nH]c1=O`, the IC50 is 0.5 to 1.3 µM in data set [1], 13 to 26 µM in data set [2], 0.05 to 0.14 µM in data set [3] and more than 260 µM in data set [4].
`C=C1[C@H](CO)[C@@H](O)C[C@@H]1n1ccc(N)nc1=O`: the IC50 in data set [1] fell in the range of 4.2 to 8.4 µM; in data set [2] it was 2.1 to 4.2 µM; in data set [3], 4.2 to 42 µM; in data set [4], 2.1 to 4.2 µM.

For the origin of these results see patent US5340816A, “Hydroxymethyl(methylenecyclopentyl) purines and pyrimidines” (E. R. Squibb & Sons, Inc., priority 1993, dated 1994).
